Patent US8207178B2 (priority 2007, dated 2012)
Where two headings read alike, the source gives them in different places.

Legend:
Assay in all cases: microbe, parasite or virus in culture
Format in all cases: cell-based, human immunodeficiency virus type 1 (HIV-1)
[1] = test system: wild type HIV-1
[2] = test system: HIV-1 K103N mutant; conditions: Human immunodeficiency virus 1, HeLa, read-out: EC50 mutant K103N
[3] = test system: HIV-1 K103N-L100I mutant
[4] = test system: HIV-1 K103N-Y181C mutant; conditions: Human immunodeficiency virus 1, HeLa, read-out: EC50 mutant K103N-Y181C
[5] = test system: HIV-1 Y188L mutant; conditions: Human immunodeficiency virus 1, HeLa, read-out: EC50 mutant Y188L
[6] = Human immunodeficiency virus 1, Hela-JC53
[7] = Human immunodeficiency virus 1, HeLa, read-out: EC50 mutant K103N-L100I, mutant K103N-L100I

| SMILES | EC50 [1, 6] [nM] | EC50 [3, 7] [nM] | other results |
| --- | --- | --- | --- |
| Cc1cc(-c2ccncc2)cc(C)c1Oc1nc(Nc2ccc(C#N)cc2)nc2ccn(C)c12 [Example 1, 4-(4-(2,6-Dimethyl-4-(pyridin-4-yl)phenoxy)-5-methyl-5H-pyrrolo[3,2-d]pyrimidin-2-ylamino)benzonitrile] | 1 to 10 | 1 to 10 | EC50 [2]: < 1 nM; EC50 [4]: 1 to 10 nM; EC50 [5]: 1 to 10 nM |
| Cc1cc(-c2ccncc2F)cc(C)c1Oc1nc(Nc2ccc(C#N)cc2)nc2ccn(C)c12 [Example 2, 4-(4-(4-(3-Fluoropyridin-4-yl)-2,6-dimethylphenoxy)-5-methyl-5H-pyrrolo[3,2-d]pyrimidin-2-ylamino) benzonitrile] | 1 to 10 | 1 to 10 | EC50 [2]: 1 to 10 nM; EC50 [4]: 1 to 10 nM; EC50 [5]: > 10 nM |
| Cc1cc(-c2ccnc(F)c2)cc(C)c1Oc1nc(Nc2ccc(C#N)cc2)nc2ccn(C)c12 [Example 3, 4-(4-(4-(2-Fluoropyridin-4-yl)-2,6-dimethylphenoxy)-5-methyl-5H-pyrrolo[3,2-d]pyrimidin-2-ylamino) benzonitrile] | 1 to 10 | 1 to 10 | EC50 [2]: 1 to 10 nM; EC50 [4]: > 10 nM; EC50 [5]: > 10 nM |
| Cc1cc(-c2ccncc2C#N)cc(C)c1Oc1nc(Nc2ccc(C#N)cc2)nc2ccn(C)c12 [Example 5, 4-(4-(2-(4-Cyanophenylamino)-5-methyl-5H-pyrrolo[3,2-d]pyrimidin-4-yloxy)-3,5-dimethylphenyl)nicotinonitrile] | – | – | EC50 [1]: < 1 nM; EC50 [2]: < 1 nM; EC50 ([3]; read-out: EC50 mutant K103N-L100I, mutant K103N-L100I): < 1 nM; EC50 [4]: 1 to 10 nM; EC50 [5]: > 10 nM |
| Cc1cc(-c2ccncc2)cc(Cl)c1Oc1nc(Nc2ccc(C#N)cc2)nc2nc[nH]c12 [Example 100, 4-(6-(2-Chloro-6-methyl-4-(pyridin-4-yl)phenoxy)-7H-purin-2-ylamino)benzonitrile] | 1 to 10 | > 10 | – |
| COc1ccc(Cn2cnc3nc(Nc4ccc(C#N)cc4)nc(Oc4ccc(-c5ccncc5)cc4Cl)c32)cc1 [Example 101, 4-(6-(2-Chloro-4-(pyridin-4-yl)phenoxy)-7-(4-methoxybenzyl)-7H-purin-2-ylamino)benzonitrile] | > 10 | > 10 | – |
| N#Cc1ccc(Nc2nc(Oc3ccc(-c4ccncc4)cc3Cl)c3[nH]cnc3n2)cc1 [Example 102, 4-(6-(2-Chloro-4-(pyridin-4-yl)phenoxy)-7H-purin-2-ylamino)benzonitrile] | < 1 | > 10 | – |
| COc1ccc(Cn2cnc3nc(Nc4ccc(C#N)cc4)nc(Oc4c(Cl)cc(-c5ccncc5)cc4Cl)c32)cc1 [Example 103, 4-(6-(2,6-Dichloro-4-(pyridin-4-yl)phenoxy)-7-(4-methoxybenzyl)-7H-purin-2-ylamino)benzonitrile] | 1 to 10 | > 10 | – |
| N#Cc1ccc(Nc2nc(Oc3c(Cl)cc(-c4ccncc4)cc3Cl)c3[nH]cnc3n2)cc1 [Example 104, 4-(6-(2,6-Dichloro-4-(pyridin-4-yl)phenoxy)-7H-purin-2-ylamino)benzonitrile] | 1 to 10 | 1 to 10 | – |
| COc1ccc(Cn2cnc3c(Oc4ccc(-c5ccncc5)cc4)nc(Nc4c(C)cc(C#N)cc4C)nc32)cc1 [Example 105, 4-(9-(4-Methoxybenzyl)-6-(4-(pyridin-4-yl)phenoxy)-9H-purin-2-ylamino)-3,5-dimethylbenzonitrile] | > 10 | > 10 | – |
| Cc1cc(C#N)cc(C)c1Nc1nc(Oc2ccc(-c3ccncc3)cc2)c2nc[nH]c2n1 [Example 106, 3,5-Dimethyl-4-(6-(4-(pyridin-4-yl)phenoxy)-9H-purin-2-ylamino)benzonitrile] | > 10 | > 10 | – |
| Cc1cc(-c2ccncc2)cc(C)c1Oc1nc(Nc2ccc(C#N)cc2)nc2ncn(C)c12 [Example 107, 4-(6-(2,6-Dimethyl-4-(pyridin-4-yl)phenoxy)-7-methyl-7H-purin-2-ylamino)benzonitrile] | 1 to 10 | 1 to 10 | – |
| Cc1cc(-c2ccncc2)cc(C)c1Oc1nc(Nc2ccc(C#N)cc2)nc2c1ncn2C [Example 108, 4-(6-(2,6-dimethyl-4-(pyridin-4-yl)phenoxy)-9-methyl-9H-purin-2-ylamino)benzonitrile] | 1 to 10 | 1 to 10 | – |
| Cc1cc(-c2ccc(C(N)=O)cc2)cc(C)c1Oc1nc(Nc2ccc(C#N)cc2)nc2c1ncn2C [Example 109, 4′-(2-(4-cyanophenylamino)-9-methyl-9H-purin-6-yloxy)-3′,5′-dimethylbiphenyl-4-carboxamide] | < 1 | 1 to 10 | – |
| Cc1cc(-c2ccc(C(=O)O)cc2)cc(C)c1Oc1nc(Nc2ccc(C#N)cc2)nc2ncn(C)c12 [Example 110, 4′-(2-(4-Cyanophenylamino)-7-methyl-7H-purin-6-yloxy)-3′,5′-dimethylbiphenyl-4-carboxylic acid] | > 10 | > 10 | – |
| Cn1cnc2nc(Nc3ccc(C#N)cc3)nc(Oc3c(Cl)cc(-c4ccc(C(N)=O)cc4)cc3Cl)c21 [Example 112, 3′,5′-dichloro-4′-(2-(4-cyanophenylamino)-7-methyl-7H-purin-6-yloxy)biphenyl-4-carboxamide] | < 1 | 1 to 10 | – |
| Cc1cc(-c2ccc(S(N)(=O)=O)cc2)cc(Cl)c1Oc1nc(Nc2ccc(C#N)cc2)nc2c1ncn2C [Example 113, 3′-chloro-4′-(2-(4-cyanophenylamino)-9-methyl-9H-purin-6-yloxy)-5′-methylbiphenyl-4-sulfonamide] | < 1 | 1 to 10 | – |
| Cn1cnc2c(Oc3c(Cl)cc(-c4ccc(C(N)=O)cc4)cc3Cl)nc(Nc3ccc(C#N)cc3)nc21 [Example 114, 3′,5′-dichloro-4′-(2-(4-cyanophenylamino)-9-methyl-9H-purin-6-yloxy)biphenyl-4-carboxamide] | < 1 | > 10 | – |
| Cc1cc(-c2ccc(S(N)(=O)=O)cc2)cc(Cl)c1Oc1nc(Nc2ccc(C#N)cc2)nc2ncn(C)c12 [Example 115, 3′-chloro-4′-(2-(4-cyanophenylamino)-7-methyl-7H-purin-6-yloxy)-5′-methylbiphenyl-4-sulfonamide] | < 1 | < 1 | – |
| Cc1cc(-c2ccc(C(N)=O)cc2)cc(Cl)c1Oc1nc(Nc2ccc(C#N)cc2)nc2ncn(C)c12 [Example 116, 3′-chloro-4′-(2-(4-cyanophenylamino)-7-methyl-7H-purin-6-yloxy)-5′-methylbiphenyl-4-carboxamide] | < 1 | 1 to 10 | – |
| Cc1cc(-c2ccc(C(N)=O)cc2)cc(Cl)c1Oc1nc(Nc2ccc(C#N)cc2)nc2c1ncn2C [Example 117, 3′-chloro-4′-(2-(4-cyanophenylamino)-9-methyl-9H-purin-6-yloxy)-5′-methylbiphenyl-4-carboxamide] | < 1 | 1 to 10 | – |
| Cc1cc(-c2ccc(C(N)=O)nc2)cc(C)c1Oc1nc(Nc2ccc(C#N)cc2)nc2ncn(C)c12 [Example 118, 5-(4-(2-(4-cyanophenylamino)-7-methyl-7H-purin-6-yloxy)-3,5-dimethylphenyl)picolinamide] | 1 to 10 | 1 to 10 | – |
| Cc1cc(-c2ccc(C(N)=O)nc2)cc(C)c1Oc1nc(Nc2ccc(C#N)cc2)nc2c1ncn2C [Example 119, 5-(4-(2-(4-cyanophenylamino)-9-methyl-9H-purin-6-yloxy)-3,5-dimethylphenyl)picolinamide] | < 1 | > 10 | – |
| CCOC(=O)c1ccc(-c2cc(C)c(Oc3nc(Nc4ccc(C#N)cc4)nc4nc[nH]c34)c(C)c2)cn1 [Example 120, Ethyl 5-(4-(2-(4-cyanophenylamino)-7H-purin-6-yloxy)-3,5-dimethylphenyl)picolinate] | > 10 | > 10 | – |
| Cc1cc(-c2ccc(C(N)=O)cn2)cc(C)c1Oc1nc(Nc2ccc(C#N)cc2)nc2c1ncn2C [Example 124, 6-(4-(2-(4-cyanophenylamino)-9-methyl-9H-purin-6-yloxy)-3,5-dimethylphenyl)nicotinamide] | 1 to 10 | > 10 | – |
| Cc1cc(-c2ccc(C(=O)N3CCC3)cn2)cc(C)c1Oc1nc(Nc2ccc(C#N)cc2)nc2[nH]cnc12 [Example 125, 4-(6-(4-(5-(azetidine-1-carbonyl)pyridin-2-yl)-2,6-dimethylphenoxy)-9H-purin-2-ylamino)benzonitrile] | 1 to 10 | 1 to 10 | – |
| Cc1cc(-c2ccc(C(=O)N3CCC(C#N)C3)cn2)cc(C)c1Oc1nc(Nc2ccc(C#N)cc2)nc2[nH]cnc12 (stereo not drawn) [Example 127, 1-(6-(4-(2-(4-cyanophenylamino)-9H-purin-6-yloxy)-3,5-dimethylphenyl)nicotinoyl)pyrrolidine-3-carbonitrile] | > 10 | > 10 | – |
| Cc1cc(-c2ccc(C(=O)N(C)C)cn2)cc(C)c1Oc1nc(Nc2ccc(C#N)cc2)nc2[nH]cnc12 [Example 128, 6-(4-(2-(4-cyanophenylamino)-9H-purin-6-yloxy)-3,5-dimethylphenyl)-N,N-dimethylnicotinamide] | 1 to 10 | > 10 | – |
| Cc1cc(-c2ccc(C(N)=O)nc2)cc(C)c1Oc1nc(Nc2ccc(C#N)cc2)nc2[nH]cnc12 [Example 129, 5-(4-(2-(4-cyanophenylamino)-9H-purin-6-yloxy)-3,5-dimethylphenyl)picolinamide] | 1 to 10 | > 10 | – |
| COC(=O)c1ccc(-c2cc(C)c(Oc3nc(Nc4ccc(C#N)cc4)nc4[nH]cnc34)c(C)c2)cn1 [Example 130, Methyl 5-(4-(2-(4-cyanophenylamino)-9H-purin-6-yloxy)-3,5-dimethylphenyl)picolinate] | 1 to 10 | > 10 | – |
